# Source: patent publication US10561638B2, “Methods for treating dependence” (Biotie Therapies, Inc., priority 2007, dated 2020)
# “Also recorded” adds a separate entry of the source.
# Assays:
# [1] = tested on: brain dopamine/norepinephrine ratio; experiment: Dopamine/norepinephrine ratios in the brain of rodents; conditions: in vivo
# Method: Dopamine/norepinephrine ratios in the brain of rodents treated with nepicastat were determined. Dopamine/norepinephrine ratios increased in the brains of rodents treated with nepicastat or disulfuram.
# thyroid uptake of 123I = experiment: Thyroid uptake of 123I in humans; type: in vivo, human
# alpha1 receptors = experiment: Radioligand filtration binding (Example 19)
# Method: (§1) The affinity of nepicastat was determined in the bindings assays outlined using standard radioligand filtration binding methods were used. Competition binding data were analyzed by iterative curve fitting to a four parameter logistic equation. Hill coefficients and IC50 were obtained directly. pKi (−log of Ki) of competing ligands were calculated from IC50 values using the Cheng-Prusoff equation.
# [2] = biological target: all other receptors examined; experiment: Radioligand filtration binding (Example 19)
# Method: as §1
# [3] = tested on: tissue norepinephrine and dopamine levels; experiment: Tissue catecholamines in SHRs after single dose (dose response, time course); type: in vivo, spontaneously hypertensive rats; conditions: for dose with significant change in dopamine/norepinephrine ratio: 6 h after single oral dose
# Method: Significant changes in these parameters were also observed in the left ventricle of male Sprague-Dawley rats 6 hours after the second of two i.v. injections (15 mg/kg) given 12 hours apart. The 24 hour time course of tissue catecholamines was studied in male SHRs following oral administration of either 10 or 30 mg/kg, respectively. The increase in the dopamine/norepinephrine ratio was significant at 1 hour, and was long lasting (12 hours at 10 mg/kg, mesenteric artery, and 24 hours at 30 mg/kg, left ventricle).
# In SHRs there were significant changes in the dopamine/norepinephrine ratio in the mesenteric artery at doses of 0.3 mg/kg, in the left ventricle at 3.0 mg/kg, and in the cerebral cortex at 10 mg/kg. […] In a second dose-response study in SHRs, three doses were administered 12 hours apart at either 3.0, 10, 30, or 100 mg/kg, and tissue was harvested six hours after the third dose. Nepicastat caused a significant dose dependent decrease in norepinephrine (10 mg/kg) and increase in dopamine (3.0 mg/kg) and the dopamine/norepinephrine ratio (3.0 mg/kg) in the left ventricle and mesenteric artery. The effects of nepicastat on dopamine and norepinephrine concentrations, and the dopamine/norepinephrine ratio in the cerebral cortex were significant only at 30 and 100 mg/kg.
# The purpose of this study was to determine the 24 hours time course of the effects of nepicastat (10 mg/kg) on dopamine and norepinephrine levels in the mesenteric artery following a single oral dose in spontaneously hypertensive rats. Catecholamine levels were measured at 1, 2, 4, 6, 8, 12, 16, and 24 hours after a single oral administration of either nepicastat (10 mg/kg) or vehicle (dH2O; 10 ml/kg).
# Sixteen-17 week old, male spontaneous hypertensive rats (SHRs) weighing 300-400 grams were allowed food and water ad libitum. Animals were weighed and randomly assigned, the afternoon before the study, to one of the following treatment groups (n=9 per group): a single oral administration of nepicastat at 10 mg/kg or a single oral administration of vehicle (10 ml/kg) to be sacrificed at 1, 2, 4, 6, 8, 12, 16, or 24 hours.
# Animals were dosed […] the morning of sacrifice. At 1, 2, 4, 6, 8, 12, 16 and 24 hours following administration, 9 treated animals and 9 vehicle animals were anesthetized with halothane, decapitated, and the left ventricle and mesenteric artery were rapidly harvested and weighed. The mesenteric artery was put in 0.5 ml of 0.4M perchloric acid in a centrifuge tube and the left ventricle put into an empty cryotube. Both tissues were immediately frozen in liquid nitrogen and stored at −70° C. Mesenteric artery catecholamine levels were determined using HPLC with electrochemical detection. At the time of decapitation, plasma samples were taken by draining blood from the carcass into a tube containing heparin, and centrifuging at 4° C.
# Each treatment group was compared to vehicle at each time point. A two way analysis of variance (ANOVA) with effects TRT, HARVEST and their interaction was performed. A one way ANOVA with factor TRT was performed for each harvest time. Pairwise analyses between treated and vehicle animals, at each time point, were carried out using Fisher's LSD strategy to control the experiment-wise error rate. […] Levels were marginally (0.05<p<0.1) lower at the 6 hour time point.
# [4] = Tolerability in patients with chronic heart failure; type: in vivo, human
# Method: The dose at which the frequency of significant adverse events increased was 160 mg.
# [5] = tested on: conscious, restrained SHRs; experiment: Hemodynamic study in conscious, restrained SHRs; type: in vivo, spontaneously hypertensive rats
# Method: The in vivo hemodynamic activity of nepicastat was further assessed in conscious, restrained SHRs, a model having high sympathetic drive to cardiovascular tissues. Hemodynamic study in SHRs. Male SHRs (15-16 week old) were used in the study. The animals were lightly anesthetized with ether and the left femoral artery and vein were catheterized for measurement of blood pressure and drug administration, respectively. The animals were placed in restrainers and allowed to recover for 30-40 min. After obtaining baseline measurements, the animals were treated, orally, with either vehicle or the appropriate dose of nepicastat and hemodynamic parameters were continuously recorded for 4 h. The animals were then anesthetized with pentobarbital, placed on a heating pad (37° C.) and ventilated with a Harvard rodent ventilator. After administration of atropine (1 mg/kg, iv) and tubocurarine (1 mg/kg, iv), the animals were pithed through the orbit of the eye with a stainless steel rod. The […] rod was stimulated electrically with 1 ms pulses of 80V at different frequencies (0.15, 0.45, 1.5, 5, 15 Hz) to obtain frequency-pressor response curves. […] The animals were placed in restrainers and allowed to recover for 30-40 minutes. After obtaining baseline measurements, the animals were treated, orally, with either vehicle or the appropriate dose of nepicastat and hemodynamic parameters were continuously recorded for 4 h.
structure (smiles),measurement,setting,value
"Cl.NCc1c[nH]c(=S)n1[C@H]1CCc2c(F)cc(F)cc2C1 [nepicastat, (S)-5-Aminomethyl-1-(5,7-difluoro-1,2,3,4-tetrahydronaphth-2-yl)-2,3-dihydro-2-thioxo-1H-imidazole hydrochloride]",dopamine/norepinephrine ratios in the brain,[1],increased
same,thyroid uptake of 123I vs placebo,"thyroid uptake of 123I; 5, 40 and 100 mg",no differences from placebo
same,reduction of thyroid uptake of 123I vs placebo,thyroid uptake of 123I; single 200 mg dose,significantly greater than placebo
same,pKi,alpha1 receptors,6.9-6.7
same,pKi,[2],< 6.2
same,duration of increase in dopamine/norepinephrine ratio,"[3]; 10 mg/kg, mesenteric artery",12 h
same,duration of increase in dopamine/norepinephrine ratio,"[3]; 30 mg/kg, left ventricle",24 h
same,time at which increase in dopamine/norepinephrine ratio was significant,[3]; 10 or 30 mg/kg oral,1 h
same,doses inhibiting DBH,[3]; cerebral cortex of rats,60 to 100 mg/kg/day
same,dose with significant change in dopamine/norepinephrine ratio,[3]; cerebral cortex,10 mg/kg
same,oral dose with significant evidence for DBH inhibition,"[3]; heart and mesenteric artery, rats",6 mg/kg/day
same,doses inhibiting DBH,[3]; left ventricle and mesenteric artery of rats,1 to 6 mg/kg/day
same,dose with significant change in dopamine/norepinephrine ratio,[3]; left ventricle,3.0 mg/kg
same,dopamine/norepinephrine ratio vs vehicle,"[3]; mesenteric artery, 10 mg/kg po, 1, 2, 4, 6 and 12 hour",significantly (p<0.05) greater
same,dopamine levels vs vehicle,"[3]; mesenteric artery, 10 mg/kg po, 2 and 6 hr",significantly (p<0.05) higher
same,"norepinephrine, dopamine and ratio","[3]; mesenteric artery, 10 mg/kg po, 16 and 24 h harvest",no changes in any of the three parameters
same,dose with significant change in dopamine/norepinephrine ratio,[3]; mesenteric artery,0.3 mg/kg
same,norepinephrine vs vehicle,"[3]; mesenteric artery, single 10 mg/kg po, 1-24 h",significantly (p<0.05) lower than vehicle only at the 4 hr time point
same,patients with symptomatic orthostatic hypotension,[4]; 160 mg,6 of the 8 patients
same,patients who developed a rash,[4]; 160 mg for 8 days or longer,Four of 8 patients
same,tolerability,"[4]; daily doses of 40, 80, 120 mg for 10 days",generally well tolerated
same,dose at which the frequency of significant adverse events increased,"[4]; human, in vivo",160 mg
same,decrease in heart rate,[5]; 10 mg/kg,9.8%
same,maximal decrease in mean blood pressure,[5]; 10 mg/kg po,53±4 mmHg
same,reduction in mean blood pressure relative to vehicle control,[5]; 10 mg/kg po,33%
same,decrease in blood pressure 4 hours after dosing,"[5]; 10 mg/kg, SHRs",−46 mmHg
same,decrease in heart rate,[5]; 30 mg/kg,10.5%
same,effect on mean arterial pressure,"[5]; 0.3-30 mg/kg po, up to 4 h, hydrochloride",significant (p<0.05) lowering of mean arterial pressure; also recorded: significant antihypertensive effect
same,effect on heart rate,[5]; 10 and 30 mg/kg po,significantly reduced heart rate
same,duration of antihypertensive effects,[5]; acute oral administration,> 4 h
same,time to plateau of the antihypertensive response,[5]; po,3 to 4 h
